# Test system: HOP-62 complex spheroids with HUVEC/MSC, viability
# Test: Anticancer human tumor HOP-62 cell line growth inhibition [RAS];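 further: spheroids exposed to agents for seven days before readout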;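 on viability, T/C: 100% = DMSO vehicle control viability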
# Details: for IC50: curve of first compound; for viability, T/C: stronger effect = lower value
# How it was run: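 Tumour cells grown as complex spheroids with HUVEC endothelial cells and mesenchymal stem cells, treated with RAS pathway inhibitor combinations. Each agent spans half-log steps from near clinical Cmax, or 10 microM where Cmax is unknown.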
structure (smiles),measurement,setting,value
CC(C)n1nc(-c2ccc3oc(N)nc3c2)c2c(N)ncnc21 + C#Cc1c(F)ccc2cc(O)cc(-c3ncc4c(N5CC6CCC(C5)N6)nc(OCC56CCCN5CC(F)C6)nc4c3F)c12,IC50,second compound 0.0316 µM,27.8 nM
same,IC50,second compound 0.1 µM,28.1 nM
same,IC50,second compound 0.316 µM,19.5 nM
same,IC50,second compound 1 µM,12.4 nM
same,IC50,second compound 3.16 µM,3.75 nM
same,IC50,second compound 10 µM,< 0.316 nM
same,"viability, T/C","second compound 0.0316 µM, first compound 0.000316 µM",99.2%
same,"viability, T/C","second compound 0.0316 µM, first compound 0.001 µM",99%
same,"viability, T/C","second compound 0.0316 µM, first compound 0.00316 µM",86.8%
same,"viability, T/C","second compound 0.0316 µM, first compound 0.01 µM",73.7%
same,"viability, T/C","second compound 0.0316 µM, first compound 0.0316 µM",46.3%
same,"viability, T/C","second compound 0.0316 µM, first compound 0.1 µM",28.3%
same,"viability, T/C","second compound 0.1 µM, first compound 0.000316 µM",110%
same,"viability, T/C","second compound 0.1 µM, first compound 0.001 µM",94.9%
same,"viability, T/C","second compound 0.1 µM, first compound 0.00316 µM",83.9%
same,"viability, T/C","second compound 0.1 µM, first compound 0.01 µM",69.6%
same,"viability, T/C","second compound 0.1 µM, first compound 0.0316 µM",46.9%
same,"viability, T/C","second compound 0.1 µM, first compound 0.1 µM",26.7%
same,"viability, T/C","second compound 0.316 µM, first compound 0.000316 µM",106%
same,"viability, T/C","second compound 0.316 µM, first compound 0.001 µM",99.3%
same,"viability, T/C","second compound 0.316 µM, first compound 0.00316 µM",79.3%
same,"viability, T/C","second compound 0.316 µM, first compound 0.01 µM",63.1%
same,"viability, T/C","second compound 0.316 µM, first compound 0.0316 µM",41.1%
same,"viability, T/C","second compound 0.316 µM, first compound 0.1 µM",26.5%
same,"viability, T/C","second compound 1 µM, first compound 0.000316 µM",106%
same,"viability, T/C","second compound 1 µM, first compound 0.001 µM",89.7%
same,"viability, T/C","second compound 1 µM, first compound 0.00316 µM",70%
same,"viability, T/C","second compound 1 µM, first compound 0.01 µM",54.6%
same,"viability, T/C","second compound 1 µM, first compound 0.0316 µM",36.1%
same,"viability, T/C","second compound 1 µM, first compound 0.1 µM",26.6%
same,"viability, T/C","second compound 3.16 µM, first compound 0.000316 µM",76.9%
same,"viability, T/C","second compound 3.16 µM, first compound 0.001 µM",67.2%
same,"viability, T/C","second compound 3.16 µM, first compound 0.00316 µM",47.6%
same,"viability, T/C","second compound 3.16 µM, first compound 0.01 µM",37.5%
same,"viability, T/C","second compound 3.16 µM, first compound 0.0316 µM",35.6%
same,"viability, T/C","second compound 3.16 µM, first compound 0.1 µM",14.4%
same,"viability, T/C","second compound 10 µM, first compound 0.000316 µM",45.7%
same,"viability, T/C","second compound 10 µM, first compound 0.001 µM",32.8%
same,"viability, T/C","second compound 10 µM, first compound 0.00316 µM",28.2%
same,"viability, T/C","second compound 10 µM, first compound 0.01 µM",21.6%
same,"viability, T/C","second compound 10 µM, first compound 0.0316 µM",13%
same,"viability, T/C","second compound 10 µM, first compound 0.1 µM",11.6%
CCc1c2c(nc3ccc(O)cc13)-c1cc3c(c(=O)n1C2)COC(=O)[C@]3(O)CC + CCn1c(-c2cc(N3CCN(C)CC3)cnc2C(C)OC)c2c3cc(ccc31)-c1csc(n1)CC(NC(=O)C1CC1C)C(=O)N1CCCC(N1)C(=O)OCC(C)(C)C2,IC50,second compound 0.000949 µM,1.77 nM
same,IC50,second compound 0.003 µM,1.54 nM
same,IC50,second compound 0.00949 µM,1.14 nM
same,IC50,second compound 0.03 µM,< 0.949 nM
same,IC50,second compound 0.0949 µM,< 0.949 nM
same,IC50,second compound 0.3 µM,< 0.949 nM
same,"viability, T/C","second compound 0.000949 µM, first compound 0.000949 µM",83.8%
same,"viability, T/C","second compound 0.000949 µM, first compound 0.003 µM",21.2%
same,"viability, T/C","second compound 0.000949 µM, first compound 0.00949 µM",9.03%
same,"viability, T/C","second compound 0.000949 µM, first compound 0.03 µM",7.89%
same,"viability, T/C","second compound 0.000949 µM, first compound 0.0949 µM",5.5%
same,"viability, T/C","second compound 0.000949 µM, first compound 0.3 µM",1.91%
same,"viability, T/C","second compound 0.003 µM, first compound 0.000949 µM",72.3%
same,"viability, T/C","second compound 0.003 µM, first compound 0.003 µM",18.9%
same,"viability, T/C","second compound 0.003 µM, first compound 0.00949 µM",13.3%
same,"viability, T/C","second compound 0.003 µM, first compound 0.03 µM",11.4%
same,"viability, T/C","second compound 0.003 µM, first compound 0.0949 µM",7.41%
same,"viability, T/C","second compound 0.003 µM, first compound 0.3 µM",4.35%
same,"viability, T/C","second compound 0.00949 µM, first compound 0.000949 µM",55.1%
same,"viability, T/C","second compound 0.00949 µM, first compound 0.003 µM",25.2%
same,"viability, T/C","second compound 0.00949 µM, first compound 0.00949 µM",17.4%
same,"viability, T/C","second compound 0.00949 µM, first compound 0.03 µM",13.7%
same,"viability, T/C","second compound 0.00949 µM, first compound 0.0949 µM",11.1%
same,"viability, T/C","second compound 0.00949 µM, first compound 0.3 µM",9.59%
same,"viability, T/C","second compound 0.03 µM, first compound 0.000949 µM",45.6%
same,"viability, T/C","second compound 0.03 µM, first compound 0.003 µM",32%
same,"viability, T/C","second compound 0.03 µM, first compound 0.00949 µM",21.1%
same,"viability, T/C","second compound 0.03 µM, first compound 0.03 µM",15.6%
same,"viability, T/C","second compound 0.03 µM, first compound 0.0949 µM",13.1%
same,"viability, T/C","second compound 0.03 µM, first compound 0.3 µM",13.2%
same,"viability, T/C","second compound 0.0949 µM, first compound 0.000949 µM",34.5%
same,"viability, T/C","second compound 0.0949 µM, first compound 0.003 µM",32.5%
same,"viability, T/C","second compound 0.0949 µM, first compound 0.00949 µM",19.7%
same,"viability, T/C","second compound 0.0949 µM, first compound 0.03 µM",14.7%
same,"viability, T/C","second compound 0.0949 µM, first compound 0.0949 µM",12.9%
same,"viability, T/C","second compound 0.0949 µM, first compound 0.3 µM",13.6%
same,"viability, T/C","second compound 0.3 µM, first compound 0.000949 µM",37.8%
same,"viability, T/C","second compound 0.3 µM, first compound 0.003 µM",25.2%
same,"viability, T/C","second compound 0.3 µM, first compound 0.00949 µM",18.5%
same,"viability, T/C","second compound 0.3 µM, first compound 0.03 µM",15.8%
same,"viability, T/C","second compound 0.3 µM, first compound 0.0949 µM",21.9%
same,"viability, T/C","second compound 0.3 µM, first compound 0.3 µM",15.8%
CC(C)NCC(C(=O)N1CCN(c2ncnc3c2C(C)CC3O)CC1)c1ccc(Cl)cc1 (configuration not stated),"viability, T/C",compound 0.0316 µM,105% [middle of 4 runs]
same,"viability, T/C",compound 0.1 µM,105% [middle of 4 runs]
same,"viability, T/C",compound 0.316 µM,98.4% [middle of 4 runs]

# — PubChem BioAssay AID2060892 (Molecular Pharmacology Branch, DTP, NCI, 2025)
